Experiments:
[1] = tested on: Pseudomonas aeruginosa-injected T. molitor larvae; experiment: Mortality of Pseudomonas aeruginosa-injected T. molitor larvae; format: in vivo, Tenebrio molitor; details: 10 μM; 20 days of incubation; FIG. 10
Description: The mortality of Tenebrio molitor (T. molitor) larvae was measured with a positive control or compound (0-10 μM) by the method used as in previous research. Overnight-cultured P. aeruginosa (OD 595 nm=1.0) was centrifuged for 10 minutes at 10,000 rpm. The supernatant was filtered through a 0.22-μm filter, and injected into the larvae using a syringe needle. The larvae were stored in a petri dish for 20 days at 25° C. The mortality of the larvae was measured every 5 days.

Pseudomonas aeruginosa [2] = experiment: EPS analysis of drip-flow biofilm cells (carbohydrates, proteins); format: cell-based; details: 10 μM
Description: EPS analysis was carried out with the biofilm cells attached to the slides after the operation of the drip-flow reactor. The biofilm cells that were centrifuged were re-suspended with 0.01M KCl, and for the analysis of carbohydrates and proteins, the cells were disrupted with a sonicator (VCX 750, SONICS, Newtown, Conn., USA) for 5 seconds at a level of 3.5 Hz, followed by stopping for 5 seconds, which was repeated 4 times. A supernatant of the cell-disrupted suspension was filtered through a 0.22 μm membrane filter (Millex filter, Carl Roth, Karlsruhe, Germany). For protein analysis, a mixture containing 40 μL of the filtrate and 200 μL of a Lowry reagent (L3540, Sigma-Aldrich) was incubated at room temperature for 10 minutes. Afterward, 20 μL of a Folin-Ciocalteu reagent (Sigma-Aldrich) was added and incubated at room temperature for 30 minutes, followed by measuring OD at 750 nm using a multimode plate reader. A protein amount was quantified at OD 750 nm or OD 595 nm. For carbohydrate analysis, a mixture containing 50 μL of the filtrate and 150 μL of 99.9% sulfuric acid was incubated at room temperature for 30 minutes. Afterward, 5% phenol was added, followed by incubation at 90° C. for 5 minutes. OD was measured at 490 nm using a multimode plate reader. The amount of carbohydrates was quantified at OD 490 nm or OD 595 nm.

Pseudomonas aeruginosa [3] = experiment: Bacterial growth under static condition (OD 595 nm of suspended culture); format: cell-based; details: for activity at 10 µM / activity at 100 µM: Pseudomonas aeruginosa, 24 h; for activity at 10 µM: read-out: Relative biological activity (%) Bacterial growth 10; for activity at 100 µM: read-out: Relative biological activity (%) Bacterial growth 100
Description: Pseudomonas aeruginosa (P. aeruginosa) (OD 595 nm=1.0) was cultured overnight, and diluted in an AB medium (1:20; 300 mM NaCl, 50 mM MgSO4, 0.2% vitamin-free casamino acids, 10 mM potassium phosphate, 1 mM L-arginine, and 1% glucose, pH 7.5) together with a positive control or compound (0100 μM) in a borosilicate bottle. The resulting mixture was incubated without shaking at 37° C. for 24 hours, and to measure growth inhibition activity. OD 595 nm of the suspended culture was measured using a multimode plate reader. Biofilm cells attached to the bottle were washed twice with phosphate-buffered saline (PBS; 137 mM NaCl, 2.7 mM KCl, 10 mM Na2HPO4, and 2 mM KH2PO4, pH 7.2). Afterward, the remaining biofilm cells were stained with 0.1% crystal violet for 10 minutes, and to remove the unbound crystal violet, washed with deionized water. The crystal violet […] to the biofilm cells was eluted with 100% ethanol, and the OD of the eluted ethanol sample was measured at 545 nm using a multimode plate reader.

[4] = tested on: rhlR variant of P. aeruginosa; experiment: Pyocyanin production assay, rhlR variant; format: cell-based, Pseudomonas aeruginosa; details: 10 μM, FIG. 9C
Description: P. aeruginosa cultured overnight with a positive control or compound (0-10 μM) was inoculated in an AB medium, incubated for 24 hours at 37° C., and centrifuged for 10 minutes at 10,000 rpm. To extract pyocyanin, the supernatant was reacted with 50% trifluoroacetic acid (TFA, Sigma-Aldrich) for 1 hour at 37° C. The reacted supernatant was centrifuged for 10 minutes at 10,000 rpm, and filtered through a 0.22-μm filter. […] Specific HPLC conditions are as follows: mobile phase deionized water; TFA (99:1); injection volume:10 μL; temperature: 25° C.; and flow rate: 0.5 mL/min. The retention time of pyocyanin (Sigma-Aldrich) is 20 minutes. To measure a pyocyanin amount, when the retention time was 20 minutes, the height of an analysis peak was detected.

Pseudomonas aeruginosa [5] = experiment: Dynamic biofilm formation assay (drip-flow reactor, CLSM); format: cell-based; details: 48 hours, 10 μM, smaller volume and thickness than control
Description: Glass slides were placed in a drip-flow reactor, and an AB medium containing 5% P. aeruginosa (OD 595 nm=1.0) was added along with a positive control or compound (0 to 10 μM) and the reactor was continuously operated using peristaltic pumps (Masterflex C/L tubing pumps, Cole-Parmer, Ill., USA) at 0.3 ml/min. After the above-described process was carried out at 37° C. for 48 hours, unattached biofilm cells were removed with PBS. The remaining biofilm cells were stained with DAPI (Sigma-Aldrich) for 10 minutes, and observed by confocal laser scanning microscopy (CLSM; Carl Zeiss LSM700, Jena, Germany). The CLSM image of the biofilm cells was obtained with a 20× objective lens (W NAchroplanX20/0.5W (DIC) M27) under blue fluorescence light (excitation wavelength: 350 nm, emission wavelength: 470 nm) using a Z-stack mode of the Zen 2011 program. The volume and thickness of the biofilm were measured using Comstat2 of the ImageJ program based on a CLSM image.

LasR = target: T1, LasR (Pseudomonas aeruginosa, UniProt P25084); details: previous studies; cited from earlier work
T1 construct: expressed in transfected cells; host or cells: E. coli DH5a co-transformed with pJN105L and pSC11 (lasI::lacZ)

rhlA = experiment: RT-qPCR analysis of rhlA expression in biofilm cells; format: cell-based, Pseudomonas aeruginosa; details: 10 μM, FIG. 9B
Description: P. aeruginosa (OD 595 nm=1.0) overnight cultured with a positive control or compound (0-10 μM) was diluted (1:20) in an AB medium in a borosilicate bottle. Afterward, after culture for 24 hours at 37° C., biofilm cells were collected for RNA extraction. Total RNA was extracted using a TRI reagent (Molecular Research Center, OH, USA) according to the manufacturer's instruction. To quantify and compare QS-related gene expression levels, RT-qPCR was performed. For RT-qPCR, a SYBR Premix Ex Taq™ (Takara, Shiga, Japan), a CFX-96 real-time system (Bio-Rad, Hercules, Calif. USA), and a QS-related gene primer set were used. The thermal profile of the RT-qPCR is as follows: 40 cycles of initial denaturation for 10 seconds at 95° C., denaturation for 10 seconds at 95° C., annealing for 10 seconds at 60° C., and extension for 34 seconds at 63° C. A fluorescent signal intensity was collected at the end of the elongation step.

T1 sequence (P25084 whole entry): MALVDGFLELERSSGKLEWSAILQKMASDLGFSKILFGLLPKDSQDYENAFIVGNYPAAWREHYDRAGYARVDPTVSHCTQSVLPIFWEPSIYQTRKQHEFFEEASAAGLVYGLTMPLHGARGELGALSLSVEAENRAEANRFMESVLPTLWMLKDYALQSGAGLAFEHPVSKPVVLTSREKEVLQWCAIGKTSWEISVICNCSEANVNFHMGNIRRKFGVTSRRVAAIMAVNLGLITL

| Structure (SMILES) | larvae survived to the end of the incubation [1] | reduction of the amount of carbohydrates in EPS (Pseudomonas aeruginosa [2]; FIG. 8B) | reduction of the amount of proteins in EPS (Pseudomonas aeruginosa [2]; FIG. 8C) | effect on cell growth (in words) (Pseudomonas aeruginosa [3]; 100 PM [sic] (100 μM)) | activity at 10 µM (Pseudomonas aeruginosa [3]) | activity at 100 µM (Pseudomonas aeruginosa [3]) | virulence factor (pyocyanin) production vs control of the rhlR variant [4] | biofilm appearance under flow condition vs control (Pseudomonas aeruginosa [5]) | LasR antagonistic activity (reported previously) (LasR) | downregulation of rhlA expression of biofilm cells (rhlA) |
| --- | --- | --- | --- | --- | --- | --- | --- | --- | --- | --- |
| CCCC(=O)C#Cc1ccc(F)c(F)c1 [Compound 30, 1-(3,4-Difluorophenyl)hex-1-yn-3-one] | approximately 80% | 39% | 72% | no effect | 103% | 99% | no difference |  |  |  |
| CCCCC[C@H](O)CC(=O)CCc1ccc(O)c(OC)c1 [Compound 1c, (S)-6-gingerol, reference compound] |  |  |  |  | 96% | 101% |  | thinner and more dispersed biofilm | LasR antagonistic activity | 38% |
